Results on two molecules are retold here after patent US20230037414A1, “INHIBITORS OF ADRENOMEDULLIN FOR THE TREATMENT OF ACUTE MYELOID LEUKEMIA BY ERADICATING LEUKEMIC STEM CELLS” (INSERM (INSTITUT NATIONAL DE LA SANTÉ ET DE LA RECHERCHE …, priority 2019, published 2023).

Molecules are shown by their SMILES.

The test system of experiment [1] is MOLM-14 cells. Kind of experiment: EC50 experiments (MTS cell viability) on MOLM-14 cells FACS-sorted from xenografted mice. It is filed as cell-based. The following applies: Homo sapiens, MOLM-14, 168 h, after one week of in vitro culture. The method, then: The day before experiment, cells were adjusted to 3×10^5 cells/ml final concentration and plated in a 96-well plate (final volume: […]). To measure half-maximal inhibitory concentration (EC50), increased concentrations of AraC or idarubicin were added to the medium. After two days, 20 µl per well of MTS solution (Promega) was added for two hours and then absorbance was recorded at 490 nm with a 96-well plate reader. The doses that decrease cell viability to 50% (EC50) were analyzed Nonlinear regression log [inhibitor] vs. normalized response-variable slope with GraphPad Prism software.

In experiment [2] the test system is primary AML samples. Description: PDX model of AraC treatment in AML (NSG mice). It counts as in vivo.
Procedure: NSG mice were produced at the Genotoul Anexplo platform at Toulouse (France) using breeders obtained from Charles River Laboratories. Transplanted mice were treated with antibiotic (Baytril) for the duration of the experiment. For experiments assessing the response to chemotherapy in PDX models, mice (6-9 weeks old) were sublethally treated with busulfan (30 mg/kg) 24 hours before injection of leukemic cells. Leukemia samples were thawed in 37° C. water bath, washed in IMDM 20% FBS, and suspended in Hank's Balanced Salt Solution at a final concentration of 1-10×10^6 cells per 200 μL for tail vein injection in NSG mice. Eight to 18 weeks after AML cell transplantation and when mice were engrafted (tested by flow cytometry on peripheral blood or bone marrow aspirates), NSG mice were treated by daily intraperitoneal injection of 60 mg/kg AraC or vehicle (PBS) for 5 days. AraC was kindly provided by the pharmacy of the TUH. Mice were sacrificed at day 8 to harvest human leukemic cells from murine bone marrow. For AML cell lines, 24 hours before injection of leukemic cells mice were treated with busulfan (20 mg/kg). Then cells were thawed and washed as previously described, suspended in HBSS at a final concentration of 2×106 per 200 μL before injection into bloodstream of NSG mice. […] Daily monitoring of mice for symptoms of disease (ruffled coat, hunched back, weakness, and reduced mobility) determined the time of killing for injected animals with signs of distress.
At the end of experiment, NSG mice were humanely killed in accordance with European ethics protocols. […] The number of AML cells/μL peripheral blood and number of AML cells in total cell tumor burden (in bone marrow and spleen) were determined by using CountBright beads (Invitrogen) using described protocol.
Proteins were resolved using 4% to 12% polyacrylamide gel electrophoresis Bis-Tris gels (Life Technology, Carlsbad, Calif.) and electrotransferred to nitrocellulose membranes. […] Quantification of chemiluminescent signals was done with the GeneTools software from Syngene.
The mark [3] stands for this setting: MOLM-14 shCTR cells from AraC treated mice.
The mark [4] stands for this setting: MOLM-14 shCTR cells from vehicle-treated mice.

What is called EC50 is the midpoint of the concentration-response curve. Lower therefore signals a more potent agent. With `CC(=O)[C@]1(O)Cc2c(O)c3c(c(O)c2[C@@H](O[C@H]2C[C@H](N)[C@H](O)[C@H](C)O2)C1)C(=O)c1ccccc1C3=O` [idarubicin], the EC50 was 61 nM in experiment [1] (setting [3]) and 29 nM in experiment [1] (setting [4]).

For `Nc1ccn([C@@H]2O[C@H](CO)[C@@H](O)[C@@H]2O)c(=O)n1` [AraC, cytarabine], the EC50 in experiment [1] (setting [3]) stood at 7000 nM; in experiment [1] (setting [4]) it was 2000 nM. Also, the “percentage of human cells in the bone marrow of mice” value in experiment [2] (AraC vs PBS treated mice) is “reduced”. For the same molecule, in experiment [2] (bone marrow supernatant, western blot, AraC vs PBS), the “levels of secreted ADM in the bone marrow of mice” value is listed as “reduced”. Besides, in experiment [2] (minimal residual disease after 60 mg/kg/day AraC for 5 days, day 8, 5.6% without AraC), the “percentage of positive blasts for CALCRL” value is recorded as 23%.
